Measurements: ChEMBL document CHEMBL1201862, “PubChem BioAssay data set” (2004)
Calls of active or inactive are those of the source.

Key:
[1] = biological target: T1, Calpain-2 catalytic subunit (Sus scrofa, UniProt P43367); test: pig calpain II inhibitor potency, dose response, biochemical, fluorogenic peptide substrate (AID 1420); format: functional
T1 sequence (P43367 whole entry): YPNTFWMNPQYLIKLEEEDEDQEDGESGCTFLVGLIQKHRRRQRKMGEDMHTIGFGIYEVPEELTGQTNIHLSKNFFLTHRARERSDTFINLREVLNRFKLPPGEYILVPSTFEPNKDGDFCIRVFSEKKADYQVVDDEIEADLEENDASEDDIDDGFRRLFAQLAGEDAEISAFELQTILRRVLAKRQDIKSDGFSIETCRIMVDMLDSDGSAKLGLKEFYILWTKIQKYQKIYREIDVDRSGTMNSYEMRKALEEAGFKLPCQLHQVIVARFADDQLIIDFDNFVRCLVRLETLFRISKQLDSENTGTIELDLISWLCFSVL

[2] = HEp-2 cell cytotoxicity, dose response, cytotoxicity control for RSV inhibitor project, HTS (AID 2410); format: functional; details: human respiratory syncytial virus
cells [3] = test: cells
[4] = biological target: T2, Ubiquitin-conjugating enzyme E2 N (Homo sapiens, UniProt P61088); format: functional;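 further: Dose-response confirmation in a TR-FRET assay detecting UBC13-driven polyubiquitin chain formation, inhibition measured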
T2 sequence (P61088 whole entry): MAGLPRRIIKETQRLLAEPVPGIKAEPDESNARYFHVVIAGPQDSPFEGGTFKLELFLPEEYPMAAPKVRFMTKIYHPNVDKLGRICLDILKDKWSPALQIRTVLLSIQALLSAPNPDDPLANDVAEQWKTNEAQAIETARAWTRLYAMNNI

[5] = biological target: FAD-linked sulfhydryl oxidase ALR (Homo sapiens, UniProt P55789); test: inhibitors of human ALR sulfhydryl oxidase, dose response, biochemical, H2O2 detection, luminescence, cherry-pick (AID 493248)
[6] = ZM109 Env clade C HIV-1 fusion inhibitors, dose response, HeLa effector, CEM target cells, luciferase, cherry-pick (AID 652058); format: functional, cell-based
[7] = inhibitors of clade B AD8 Env fusion, dose response, cell-based, cherry-pick (AID 652062); format: functional;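 further: luciferase signal from cell-cell fusion driven by HIV-1 clade B AD8 Env; potency is for inhibitors of fusion seen as a drop in luminescence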
[8] = inhibitors of HIV Env-driven cell fusion, dose response, cherry-pick (AID 652057); format: functional, cell-based
[9] = off-target signal loss in HeLa-CEM21 co-culture – HeLa F-luc CTL cells, cherry-picked, counter-screen for HIV-1 Env fusion inhibitor project, dose response (AID 652040); format: functional, cell-based;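 further: potency for signal decrease marking cytotoxic or nonspecific inhibition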
[10] = inhibitors of intracellular T. cruzi replication, confirmation, NIH3T3 host cells, beta-gal luminescence (AID 2044); format: functional, cell-based;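 further: intracellular parasites grown in NIH/3T3 mouse fibroblasts as host cells; luminescent beta-galactosidase reporter signal from transgenic T. cruzi replicating inside host cells; inhibitors lower the luminescence signal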
Vero = test: cells; format: functional; details: Chlorocebus sabaeus
[11] = cytotoxicity toward NIH3T3 fibroblasts, dose response, counter-screen, cell-based, ATP luminescence, mouse fibroblasts (AID 2010); format: functional;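 further: cells exposed to compound for about 90 hours before reading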
Cytochrome P450 2C9 = Cytochrome P450 2C9 (Homo sapiens, UniProt P11712)
cells [12] = format: functional, cell-based
HEK293 = test: inhibitors of LMP1-driven NF-kB reporter, dose response, cell-based, HEK293, luciferase, cherry-pick (AID 588343); format: functional; details: Homo sapiens
cells [13] = format: functional, cell-based; remark: listed apart in the source
INS1 = test: beta cell apoptosis inhibitors, cytokine rescue, dose response, luminescence, retest (AID 449756); format: functional, cell-based; details: Rattus norvegicus;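 further: cell death triggered by IL-1 beta plus TNF-alpha plus IFN-gamma mixture; protective hits raise ATP signal compared with cytokine alone wells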
[14] = biological target: T3, Microphthalmia-associated transcription factor (Homo sapiens, UniProt O75030); test: TRPM1 promoter luciferase signal decrease, dose response, MITF inhibitor project, cell-based, SK-MEL-5, cherry-picked, set 3 (AID 493073); format: functional
T3 sequence (O75030 whole entry): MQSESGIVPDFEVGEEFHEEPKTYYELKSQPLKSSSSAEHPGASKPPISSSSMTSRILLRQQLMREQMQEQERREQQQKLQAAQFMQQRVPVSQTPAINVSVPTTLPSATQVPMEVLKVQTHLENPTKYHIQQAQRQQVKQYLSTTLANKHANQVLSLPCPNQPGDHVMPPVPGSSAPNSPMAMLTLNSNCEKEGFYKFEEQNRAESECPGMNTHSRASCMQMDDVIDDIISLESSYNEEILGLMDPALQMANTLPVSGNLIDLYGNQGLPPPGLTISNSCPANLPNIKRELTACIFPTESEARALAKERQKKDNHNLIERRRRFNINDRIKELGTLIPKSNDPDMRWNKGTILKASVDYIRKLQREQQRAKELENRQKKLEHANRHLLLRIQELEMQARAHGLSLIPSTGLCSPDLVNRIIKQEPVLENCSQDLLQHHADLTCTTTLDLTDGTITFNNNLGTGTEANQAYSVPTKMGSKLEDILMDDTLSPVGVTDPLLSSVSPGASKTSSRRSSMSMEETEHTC

Streptococcus = test: Group A Streptococcus viability loss, dose response, counter-screen for streptokinase expression inhibitor project, luminescence, BacTiterGlo (AID 1915); format: functional, organism-based;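 further: potency for reduction of bacterial viability or growth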
[15] = test system: Streptococcus sp. 'group A'; test: growth inhibition of control SK(-) GAS strain, dose response, counter-screen for streptokinase expression inhibitor project, luminescence, kanamycin, BacTiterGlo, confirmation (AID 1900); format: functional, organism-based
Cytochrome P450 2C19 = Cytochrome P450 2C19 (Homo sapiens, UniProt P33261); test: Cytochrome panel assay with activity outcomes. Panel member name: p450-cyp2c19 Compounds with AC50 equal or less than 10 uM are considered active; format: functional; details: read-out: AC50
Cytochrome P450 1A2 = biological target: T4, Cytochrome P450 1A2 (Homo sapiens, UniProt P05177);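 further: PubChem cytochrome P450 panel assay, CYP1A2 panel member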
T4 sequence (P05177 whole entry): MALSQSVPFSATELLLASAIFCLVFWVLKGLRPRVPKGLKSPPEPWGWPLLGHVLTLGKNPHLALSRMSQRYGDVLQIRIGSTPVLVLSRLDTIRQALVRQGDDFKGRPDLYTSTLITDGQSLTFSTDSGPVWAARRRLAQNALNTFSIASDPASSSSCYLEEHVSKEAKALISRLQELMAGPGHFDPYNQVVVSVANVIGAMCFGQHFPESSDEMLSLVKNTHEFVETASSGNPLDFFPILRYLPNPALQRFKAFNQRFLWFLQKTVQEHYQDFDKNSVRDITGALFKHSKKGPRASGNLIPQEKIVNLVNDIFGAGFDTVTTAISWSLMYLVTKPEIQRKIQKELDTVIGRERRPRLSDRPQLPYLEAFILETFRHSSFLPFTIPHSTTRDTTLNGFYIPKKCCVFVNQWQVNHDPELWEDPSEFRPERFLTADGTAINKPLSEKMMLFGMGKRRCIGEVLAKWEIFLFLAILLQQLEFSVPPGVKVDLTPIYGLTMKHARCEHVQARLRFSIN

[16] = HepG2 cell cytotoxicity, dose response, cytotoxicity control for Shn3 inhibitor project, CellTiter-Glo, cherry-picked (AID 624134); format: functional, cell-based
[17] = control 3'UTR Renilla luciferase suppression, dose response, counter-screen for Shn3 inhibitor project, cell-based, Clone20-Shn3RL, cherry-picked (AID 624133); format: functional
[18] = Shn3 3'UTR reporter inhibitors, dose response, cell-based, Clone20 osteoblasts, firefly luciferase, cherry-picked (AID 624132); format: functional;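 further: firefly luciferase luminescence from reporter carrying the Shn3 3'UTR in osteoblasts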
[19] = inhibitors of SNCA 5'UTR-driven reporter translation, confirmation, H4 neuroglioma cells, luminescence (AID 1988); format: functional, cell-based
[20] = Luminescence Cell-Based Dose Response HTS to Identify Inhibitors of 5'UTR Stem-Loop Driven Prion Protein mRNA Translation in H4 Neuroglioblastoma Cells. [Related pubchem assays: 1827 (Project Summary), 1813 (Primary HTS)]; format: functional
[21] = inhibitors of firefly luciferase expression or activity, dose response, H4 neuroglioma cells, luminescence (AID 1990); format: functional, cell-based

Cytochrome P450 2C9, sequence (P11712 whole entry): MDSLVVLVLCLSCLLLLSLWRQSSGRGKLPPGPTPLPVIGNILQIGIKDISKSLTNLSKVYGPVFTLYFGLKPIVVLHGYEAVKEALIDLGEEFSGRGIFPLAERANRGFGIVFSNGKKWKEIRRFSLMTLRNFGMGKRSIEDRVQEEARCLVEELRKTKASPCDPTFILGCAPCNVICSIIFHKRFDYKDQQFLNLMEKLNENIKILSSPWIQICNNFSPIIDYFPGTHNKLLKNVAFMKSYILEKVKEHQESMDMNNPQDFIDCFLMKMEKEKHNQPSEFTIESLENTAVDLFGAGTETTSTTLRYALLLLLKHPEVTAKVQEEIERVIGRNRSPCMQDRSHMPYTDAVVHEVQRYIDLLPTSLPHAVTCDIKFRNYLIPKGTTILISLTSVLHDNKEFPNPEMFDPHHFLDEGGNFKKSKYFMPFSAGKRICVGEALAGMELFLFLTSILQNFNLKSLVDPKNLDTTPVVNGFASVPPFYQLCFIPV
FAD-linked sulfhydryl oxidase ALR, sequence (P55789 whole entry, the tested form may be a part): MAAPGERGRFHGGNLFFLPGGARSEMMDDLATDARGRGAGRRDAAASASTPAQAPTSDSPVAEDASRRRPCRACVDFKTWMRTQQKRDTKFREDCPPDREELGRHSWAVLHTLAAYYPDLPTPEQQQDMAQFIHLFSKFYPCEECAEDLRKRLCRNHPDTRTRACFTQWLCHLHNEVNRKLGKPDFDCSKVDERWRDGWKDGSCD
Cytochrome P450 2C19, sequence (P33261 whole entry): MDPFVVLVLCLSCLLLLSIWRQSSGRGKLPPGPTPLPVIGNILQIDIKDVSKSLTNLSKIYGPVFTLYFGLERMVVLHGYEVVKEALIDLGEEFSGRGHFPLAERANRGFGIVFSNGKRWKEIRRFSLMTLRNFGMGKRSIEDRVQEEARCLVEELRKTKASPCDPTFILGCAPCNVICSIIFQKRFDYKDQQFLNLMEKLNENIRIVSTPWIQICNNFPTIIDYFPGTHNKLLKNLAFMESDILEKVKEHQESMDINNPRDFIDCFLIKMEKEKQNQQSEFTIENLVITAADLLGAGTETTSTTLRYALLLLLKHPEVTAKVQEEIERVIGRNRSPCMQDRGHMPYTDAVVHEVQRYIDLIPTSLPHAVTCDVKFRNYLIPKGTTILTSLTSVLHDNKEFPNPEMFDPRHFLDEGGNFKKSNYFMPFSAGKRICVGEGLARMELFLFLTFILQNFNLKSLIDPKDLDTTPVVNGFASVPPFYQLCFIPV

CC(C)Sc1nc2c3ccccc3nc-2c(O)n1C
IC50 [1]: 0.899 µM (not active)

Cc1cc(N2CCN(c3ccccc3)CC2)n2cc(-c3ccccc3)nc2n1
CC50 [2]: 45.6 µM (active)
IC50 (cells [3]): 40 µM (active)

CCOC(=O)N1CCC(NC(=O)c2ccc3c(c2)ncn3C2CCCC2)CC1
IC50 [1]: 23.1 µM (not active)

CCOC(=O)C1CN(S(=O)(=O)c2ccc(C)cc2)C1
IC50 [1]: 4.65 µM (not active)

O=S(=O)(c1ccccc1F)N1CCCC(c2nc(O)c3nnn(Cc4ccccc4Cl)c3n2)C1 (stereo not given)
CC50 [2]: 47.8 µM (active)
IC50 (cells [3]): 47.6 µM (active)

O=Cc1ccc(-c2ccc([N+](=O)[O-])cc2Cl)o1
IC50 [1]: > 50 µM (not active)

Cc1ccc(S(=O)(=O)NNC(=O)C(=O)NNc2ccccn2)cc1
IC50 [4]: > 20 µM (inactive)
AC50 [5]: 0.213 µM (active)

COC(=O)[C@@]1(C)[C@H]2C(=O)N(Cc3ccccc3)C(=O)[C@H]2[C@H]2CN=C(SCc3ccccc3)N21
AC50 [6]: 0.74 µM (active)
AC50 [7]: 4.03 µM (active)
AC50 [8]: 0.75 µM (active)
AC50 [9]: 1.02 µM (active)

Cc1ncccc1C(=O)N1CCCC(C(=O)c2ccc3c4c(cccc24)CC3)C1 (stereo not given)
AC50 [6]: 8.12 µM (active)
AC50 [7]: 8.47 µM (active)
AC50 [8]: 7.15 µM (active)
AC50 [9]: 20.4 µM (active)

CCc1ccc2nc(N(CCCN(C)C)C(=O)c3ccc4c(c3)OCCO4)sc2c1
EC50 [10]: 0.214 µM (active)
CC50 (Vero): > 25 µM (active)
EC50 [11]: 8.8 µM (active)

COc1ccccc1NCC(=O)Nc1cc(S(=O)(=O)N2CCOCC2)ccc1N1CCOCC1
IC50 (cells [3]): 5.88 µM (active)

Cc1cccc(N(C(=O)c2snc(C(N)=O)c2N)C(C(=O)NCC2CCCO2)c2cccs2)c1 (stereo not given)
IC50 [4]: > 20 µM (inactive)

Cc1c(NC(=S)/C=C2\N(C)c3ccccc3C2(C)C)c(=O)n(-c2ccccc2)n1C
AC50 (Cytochrome P450 2C9): inconclusive

CCc1ccc2nc(O)c(C(c3nnnn3Cc3ccc(OC)cc3)N3CCOCC3)cc2c1 (stereo not given)
AC50 [6]: 6.44 µM (active)
AC50 [7]: 43.7 µM (active)
AC50 [8]: 4.74 µM (active)
AC50 [9]: 7.97 µM (active)

NC(=O)c1nsc(C(=O)N(c2ccc(Cl)cc2)C(C(=O)NCC2CCCO2)c2cccs2)c1N (stereo not given)
IC50 [4]: > 20 µM (inactive)

COc1ccc2c(c1)C(=NNC(=O)c1ccccn1)c1cc(OC)ccc1-2
CC50 [2]: 38.6 µM (active)
IC50 (cells [3]): 24.6 µM (active)

O=C(Nc1cccc(Cl)c1)Nc1cccc(C(=O)O)c1
EC50 (cells [12]): 7.49 µM (active)
AC50 (HEK293): 10.5 µM (active)
EC50 (cells [13]): > 350 µM (not active)

CCOC(=O)c1c(CSc2nc(C)cc(C)c2C#N)n(C)c2cc(Br)c(OC(C)=O)cc12
AC50 (INS1): 4.21 µM (active)
AC50 (HEK293): 31.6 µM (active)

CN(C)S(=O)(=O)c1cccc(NC(=O)CSc2nc3c(cc2C#N)C(=O)CC(C)(C)C3)c1
AC50 [14]: 9.02 µM (active)

CCOC(=O)C1=C(CNC(C)(C)CC(C)(C)C)NC(=O)NC1c1cccc([N+](=O)[O-])c1 (stereo not given)
IC50 [1]: > 50 µM (not active)

O=C(/C=C/c1ccc(Br)cc1)NC(=S)NNC(=O)c1ccco1
EC50 (Streptococcus): 0.887 µM (active)
EC50 [15]: 0.343 µM (active)
CC50 (Vero): > 25 µM (active)

O=C(NCc1cccnc1)C1CCC(CNS(=O)(=O)c2ccc(Cl)cc2)CC1 (stereo not given)
IC50 [1]: 2.58 µM (not active)

COc1ccc(N(C(=O)c2snc(C(N)=O)c2N)C(C(=O)NC2CCCC2)c2cccs2)cc1OC (stereo not given)
IC50 [4]: > 20 µM (inactive)

Cc1c(CCOC(=O)CC23CC4CC(CC(C4)C2)C3)sc[n+]1CC(=O)c1ccccc1
IC50 [4]: > 20 µM (inactive)

COc1ccccc1N1CCN(c2nc3c(C)cccn3c(=O)c2C=O)CC1
AC50 (Cytochrome P450 2C19): 1.12 µM (inconclusive)
AC50 (Cytochrome P450 1A2): 12.6 µM (inconclusive)
AC50 (Cytochrome P450 2C9): inconclusive

Cc1cccc(C2NC(=O)c3c(sc(C)c3C)N2)c1O (stereo not given)
AC50 (Cytochrome P450 2C9): inconclusive

C=C(CN(C)C)C(=O)c1ccc(C)cc1C
AC50 [16]: 18.5 µM (active)
AC50 [17]: 5.15 µM (active)
AC50 [18]: 0.77 µM (active)

COc1ccccc1-c1sc2cc3c(cc2c1-c1ccc(OCCN2CCCCC2)cc1)OCO3
IC50 [4]: > 20 µM (inactive)

CC(C)=CCC/C(C)=C/CNC(=O)C[C@H]1C[C@H](C(=O)N(C(C)C)C(C)C)[C@@]2(C)c3[nH]c4cc(CCC(=O)N(C)C)ccc4c3CCN2C1=O
AC50 [17]: 11.9 µM (active)
AC50 [18]: 2.05 µM (active)

CCOc1ccc(CCN2C(=S)N([C@@H](CC(C)C)CN3CCCC3CN3C(=S)NC[C@@H]3Cc3ccc(O)cc3)C[C@@H]2Cc2ccc(O)cc2)cc1 (stereo not given in full)
AC50 [16]: 53.9 µM (active)
AC50 [17]: 6.52 µM (active)
AC50 [18]: 11.5 µM (active)

O=C(NN=Cc1ccc(N(CCCl)CCCl)cc1)c1cccnc1
AC50 (HEK293): 1.08 µM (active)

Cc1ccc(Nc2nc(NCC3CC3)nc3ccsc23)c(C)c1
AC50 [16]: > 70 µM (inactive)
AC50 [17]: 19.4 µM (active)
AC50 [18]: 5.82 µM (active)

O=C(O)c1ccc(N/N=C/c2cc3cc4c(cc3nc2Cl)OCCO4)cc1
AC50 (HEK293): 1.69 µM (active)

C[C@@H]1CN([C@H](C)CO)C(=O)c2cccc(NS(=O)(=O)c3cccs3)c2O[C@@H]1CN(C)Cc1ccc(Cl)c(Cl)c1
AC50 [6]: 0.952 µM (active)
AC50 [7]: 2.53 µM (active)
AC50 [8]: 0.444 µM (active)

CC1CN(/N=C/c2ccc([N+](=O)[O-])o2)C(=N)O1 (stereo not given)
AC50 [14]: 24.1 µM (active)

COc1ccc2cc(C(N)=O)/c(=N\NC(=O)c3ccccc3)oc2c1
EC50 [19]: 7.7 µM (active)
EC50 [20]: 8.54 µM (active)
EC50 [21]: 9.51 µM (inconclusive)
AC50 (HEK293): 2.83 µM (active)
